Reference: PubChem BioAssay (NCI)
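Five compound concentrations were applied to cells in 96-well plates for 48 hours; endpoints were derived by simple linear interpolation of the resulting dose-response curve. TGI: total growth inhibition.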

Key:
Experiment in all cases: NCI anticancer screen, dose series, 48 h
A498 renal = system: A498 renal
NCI-H226 lung = system: NCI-H226 lung
M14 melanoma = system: M14 melanoma
EKVX NSCLC = system: EKVX NSCLC
SK-MEL-2 melanoma = system: SK-MEL-2 melanoma
HOP-92 NSCLC = system: HOP-92 NSCLC
IGROV1 ovarian = system: IGROV1 ovarian
SF-295 CNS = system: SF-295 CNS

SMILES | TGI (A498 renal) | TGI (NCI-H226 lung) | TGI (M14 melanoma) | TGI (EKVX NSCLC) | TGI (SK-MEL-2 melanoma) | TGI (HOP-92 NSCLC) | TGI (IGROV1 ovarian) | TGI (SF-295 CNS)
COC(=O)C1=C(c2ccc3c(c2)OCO3)O[C@H](c2cc(OC)c(OC)c(OC)c2)[C@H]1COC(C)=O | 2.94 µM | > 100 µM | 13.6 µM | > 100 µM | > 100 µM | 36 µM | 81 µM | 11.4 µM
COc1ccc(NC(=O)CCc2cc(-c3ccc(O)c(OC)c3)nc(NC#N)n2)cc1 |  | > 100 µM | > 100 µM | > 100 µM | > 100 µM | > 100 µM | > 100 µM | > 100 µM
Cc1cc(Br)cc(C)c1NC(=O)C(=O)C(C(=O)c1ccc2ccccc2c1)C1OC(=O)c2ccccc21 (stereo not drawn) | 25.6 µM | 11.2 µM | 30.2 µM | 65.3 µM | 34.5 µM | 6.9 µM | 51.8 µM | 14.9 µM
CSc1nc2c(nc(C)c(=O)n2C2OCC(OC(C)=O)C(OC(C)=O)C2OC(C)=O)c(=O)[nH]1 (stereo not drawn) | > 100 µM |  | > 100 µM | > 100 µM | > 100 µM | > 100 µM | > 100 µM | > 100 µM
O=C(Nc1nc2ncn(CCI)c2c(=O)[nH]1)c1ccccc1 | 83.3 µM | 77.4 µM | > 100 µM | > 100 µM | > 92.3 µM | 81 µM | > 100 µM | > 87.4 µM
O=[N+]([O-])c1nccn1CC(O)c1ccc(F)cc1 (stereo not drawn) | > 100 µM | > 100 µM | > 100 µM | > 100 µM | > 100 µM | > 100 µM | > 100 µM | > 100 µM
Cc1ccc(S(=O)(=O)NCC2CCCCC2=O)cc1 (stereo not drawn) | > 100 µM | > 100 µM | > 100 µM | > 100 µM | > 100 µM | 97.2 µM | > 100 µM | > 100 µM
C=C(C=O)[C@@H]1C2OC(=O)C(=C)[C@@H]2CC(O)[C@@]1(C)CC (stereo partly drawn) | 39.5 µM | 59.8 µM | 19.1 µM | 51.1 µM | 21.7 µM | 4.19 µM | > 28.7 µM | 57.2 µM
O=C1CN=C(C[N+](=O)[O-])c2ccccc21 | > 100 µM | > 100 µM | > 100 µM | > 100 µM | > 100 µM | > 100 µM | > 100 µM | > 100 µM
CCCCOC(=O)C1C(c2ccc(Cl)cc2)NC(c2ccc(Cl)cc2)C(C(=O)OCCCC)S1(=O)=O (stereo not drawn) | > 100 µM | > 100 µM | > 100 µM | > 100 µM | > 100 µM | > 100 µM | > 100 µM | > 100 µM
